Measured values taken from PubChem BioAssay (NCI).
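Exposure lasted 48 hours, with cells grown in 96-well plates and compounds tested at five concentrations. GI50 marks 50% less growth. TGI denotes the concentration required for complete inhibition of growth.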

Legend:
Assay in all cases: NCI-60 cell line screen, 48 h; in the data active = GI50 below about 0.43 µM; inactive = the rest
786-0 renal = test system: 786-0 renal
A498 renal = test system: A498 renal
A549 NSCLC = test system: A549 NSCLC
ACHN renal = test system: ACHN renal
BT-549 breast = test system: BT-549 breast
CAKI-1 renal = test system: CAKI-1 renal
CCRF-CEM leukemia = test system: CCRF-CEM leukemia
COLO 205 colon = test system: COLO 205 colon
DU-145 prostate = test system: DU-145 prostate
EKVX NSCLC = test system: EKVX NSCLC
HCC-2998 colon = test system: HCC-2998 colon
HCT-116 colon = test system: HCT-116 colon
HCT-15 colon = test system: HCT-15 colon
HL-60(TB) leukemia = test system: HL-60(TB) leukemia
HOP-62 NSCLC = test system: HOP-62 NSCLC
HOP-92 NSCLC = test system: HOP-92 NSCLC
HS 578T breast = test system: HS 578T breast
HT29 colon = test system: HT29 colon
IGROV1 ovarian = test system: IGROV1 ovarian
K-562 leukemia = test system: K-562 leukemia
LOX IMVI melanoma = test system: LOX IMVI melanoma
M14 melanoma = test system: M14 melanoma
MALME-3M melanoma = test system: MALME-3M melanoma
MCF7 breast = test system: MCF7 breast
MDA-MB-231 breast = test system: MDA-MB-231 breast
MDA-MB-435 = test system: MDA-MB-435
MOLT-4 leukemia = test system: MOLT-4 leukemia
NCI-H226 lung = test system: NCI-H226 lung
NCI-H23 lung = test system: NCI-H23 lung
NCI-H460 lung = test system: NCI-H460 lung
NCI-H522 lung = test system: NCI-H522 lung
NCI/ADR-RES ovarian = test system: NCI/ADR-RES ovarian
OVCAR-3 ovarian = test system: OVCAR-3 ovarian
OVCAR-4 ovarian = test system: OVCAR-4 ovarian
OVCAR-5 ovarian = test system: OVCAR-5 ovarian
OVCAR-8 ovarian = test system: OVCAR-8 ovarian
PC-3 prostate = test system: PC-3 prostate
RPMI-8226 leukemia = test system: RPMI-8226 leukemia
RXF 393 renal = test system: RXF 393 renal
SF-295 CNS = test system: SF-295 CNS
SF-539 CNS = test system: SF-539 CNS
SK-MEL-2 melanoma = test system: SK-MEL-2 melanoma
SK-MEL-28 melanoma = test system: SK-MEL-28 melanoma
SK-MEL-5 melanoma = test system: SK-MEL-5 melanoma
SK-OV-3 ovarian = test system: SK-OV-3 ovarian
SN12C renal = test system: SN12C renal
SNB-19 CNS = test system: SNB-19 CNS
SNB-75 CNS = test system: SNB-75 CNS
SR leukemia = test system: SR leukemia
T-47D breast = test system: T-47D breast
TK-10 renal = test system: TK-10 renal
U251 CNS = test system: U251 CNS
UACC-257 melanoma = test system: UACC-257 melanoma
UACC-62 melanoma = test system: UACC-62 melanoma
UO-31 renal = test system: UO-31 renal
KM12 colon = test system: KM12 colon
SF-268 CNS = test system: SF-268 CNS
SW-620 colon = test system: SW-620 colon

Cc1cc(O)c(C2=NN(c3ccc(S(N)(=O)=O)cc3)C(c3ccccc3Cl)C2)cc1Cl (stereo not given)
11 µM: TGI (ACHN renal)
3.21 µM: TGI (LOX IMVI melanoma)
3.97 µM: TGI (NCI-H522 lung)
20.5 µM: TGI (A498 renal)
16.2 µM: TGI (UO-31 renal)
79.6 µM: TGI (UACC-257 melanoma)
10.3 µM: TGI (T-47D breast)
16.6 µM: TGI (HCT-15 colon)
10.4 µM: TGI (SK-OV-3 ovarian)
16.3 µM: TGI (SNB-19 CNS)
8.22 µM: TGI (RXF 393 renal)
14 µM: TGI (IGROV1 ovarian)
5.86 µM: TGI (TK-10 renal)
3.99 µM: TGI (CAKI-1 renal)
3.3 µM: TGI (OVCAR-5 ovarian)
3.92 µM: TGI (MDA-MB-435)
3.25 µM: TGI (SF-539 CNS)
19.3 µM: TGI (A549 NSCLC)
5.02 µM: TGI (U251 CNS)
8.83 µM: TGI (SNB-75 CNS)
3.43 µM: TGI (M14 melanoma)
3.18 µM: TGI (SF-295 CNS)
3.91 µM: TGI (HCC-2998 colon)
11.2 µM: TGI (OVCAR-8 ovarian)
3.31 µM: TGI (COLO 205 colon)
4.74 µM: TGI (BT-549 breast)
3.33 µM: TGI (MCF7 breast)
inactive: GI50 (786-0 renal) 2.25 µM | GI50 (A498 renal) 5.01 µM | GI50 (A549 NSCLC) 3.82 µM | GI50 (ACHN renal) 3.34 µM | GI50 (BT-549 breast) 2.16 µM | GI50 (CAKI-1 renal) 1.78 µM | GI50 (CCRF-CEM leukemia) 4.81 µM | GI50 (COLO 205 colon) 1.81 µM | GI50 (DU-145 prostate) 2.01 µM | GI50 (EKVX NSCLC) 1.95 µM | GI50 (HCC-2998 colon) 2.1 µM | GI50 (HCT-116 colon) 1.76 µM | GI50 (HCT-15 colon) 3.69 µM | GI50 (HL-60(TB) leukemia) 3.44 µM | GI50 (HOP-62 NSCLC) 2.03 µM | GI50 (HOP-92 NSCLC) 1.94 µM | GI50 (HS 578T breast) 3.28 µM | GI50 (HT29 colon) 1.92 µM | GI50 (IGROV1 ovarian) 2.58 µM | GI50 (K-562 leukemia) 3.26 µM | GI50 (LOX IMVI melanoma) 1.78 µM | GI50 (M14 melanoma) 1.85 µM | GI50 (MALME-3M melanoma) 2.62 µM | GI50 (MCF7 breast) 1.75 µM | GI50 (MDA-MB-231 breast) 2.14 µM | GI50 (MDA-MB-435) 1.85 µM | GI50 (MOLT-4 leukemia) 4.04 µM | GI50 (NCI-H226 lung) 3.02 µM | GI50 (NCI-H23 lung) 1.79 µM | GI50 (NCI-H460 lung) 2.16 µM | GI50 (NCI-H522 lung) 1.89 µM | GI50 (NCI/ADR-RES ovarian) 2.7 µM | GI50 (OVCAR-3 ovarian) 1.89 µM | GI50 (OVCAR-4 ovarian) 2.73 µM | GI50 (OVCAR-5 ovarian) 1.74 µM | GI50 (OVCAR-8 ovarian) 2.94 µM | GI50 (PC-3 prostate) 1.58 µM | GI50 (RPMI-8226 leukemia) 2.98 µM | GI50 (RXF 393 renal) 3.09 µM | GI50 (SF-295 CNS) 1.59 µM | GI50 (SF-539 CNS) 1.79 µM | GI50 (SK-MEL-2 melanoma) 11.9 µM | GI50 (SK-MEL-28 melanoma) 3.39 µM | GI50 (SK-MEL-5 melanoma) 3.85 µM | GI50 (SK-OV-3 ovarian) 3.63 µM | GI50 (SN12C renal) 2.55 µM | GI50 (SNB-19 CNS) 3.54 µM | GI50 (SNB-75 CNS) 2.23 µM | GI50 (SR leukemia) 2.97 µM | GI50 (T-47D breast) 2.81 µM | GI50 (TK-10 renal) 2.64 µM | GI50 (U251 CNS) 2.25 µM | GI50 (UACC-257 melanoma) 11.8 µM | GI50 (UACC-62 melanoma) 3.71 µM | GI50 (UO-31 renal) 2.66 µM
9.44 µM: TGI (NCI-H226 lung)
4.21 µM: TGI (NCI-H460 lung)
4.16 µM: TGI (HOP-62 NSCLC)
3.85 µM: TGI (DU-145 prostate)
8.48 µM: TGI (OVCAR-4 ovarian)
3.63 µM: TGI (HT29 colon)
4.6 µM: TGI (EKVX NSCLC)
3.58 µM: TGI (NCI-H23 lung) | TGI (OVCAR-3 ovarian)
12.3 µM: TGI (SK-MEL-28 melanoma) | TGI (SK-MEL-5 melanoma)
6.85 µM: TGI (NCI/ADR-RES ovarian)
6.32 µM: TGI (HOP-92 NSCLC) | TGI (SN12C renal)
8.35 µM: TGI (RPMI-8226 leukemia)
31 µM: TGI (SK-MEL-2 melanoma)
14.4 µM: TGI (UACC-62 melanoma)
6.46 µM: TGI (MALME-3M melanoma)
> 100 µM: TGI (CCRF-CEM leukemia) | TGI (HL-60(TB) leukemia) | TGI (HS 578T breast) | TGI (K-562 leukemia) | TGI (MOLT-4 leukemia) | TGI (SR leukemia)
3.32 µM: TGI (PC-3 prostate)
4.52 µM: TGI (786-0 renal) | TGI (MDA-MB-231 breast)
3.15 µM: TGI (HCT-116 colon)

Cc1cc2c(cc1Cl)S(=O)(=O)OC(c1ccc([N+](=O)[O-])cc1)=N2
> 100 µM: TGI (786-0 renal) | TGI (A498 renal) | TGI (A549 NSCLC) | TGI (ACHN renal) | TGI (BT-549 breast) | TGI (CAKI-1 renal) | TGI (CCRF-CEM leukemia) | TGI (COLO 205 colon) | TGI (DU-145 prostate) | TGI (EKVX NSCLC) | TGI (HCC-2998 colon) | TGI (HCT-116 colon) | TGI (HCT-15 colon) | TGI (HL-60(TB) leukemia) | TGI (HOP-62 NSCLC) | TGI (HOP-92 NSCLC) | TGI (HS 578T breast) | TGI (HT29 colon) | TGI (IGROV1 ovarian) | TGI (K-562 leukemia) | TGI (KM12 colon) | TGI (LOX IMVI melanoma) | TGI (M14 melanoma) | TGI (MALME-3M melanoma) | TGI (MCF7 breast) | TGI (MDA-MB-231 breast) | TGI (MDA-MB-435) | TGI (MOLT-4 leukemia) | TGI (NCI-H226 lung) | TGI (NCI-H460 lung) | TGI (NCI-H522 lung) | TGI (NCI/ADR-RES ovarian) | TGI (OVCAR-3 ovarian) | TGI (OVCAR-4 ovarian) | TGI (OVCAR-8 ovarian) | TGI (PC-3 prostate) | TGI (RPMI-8226 leukemia) | TGI (RXF 393 renal) | TGI (SF-268 CNS) | TGI (SF-295 CNS) | TGI (SF-539 CNS) | TGI (SK-MEL-28 melanoma) | TGI (SK-MEL-5 melanoma) | TGI (SK-OV-3 ovarian) | TGI (SN12C renal) | TGI (SNB-19 CNS) | TGI (SNB-75 CNS) | TGI (SR leukemia) | TGI (SW-620 colon) | TGI (T-47D breast) | TGI (TK-10 renal) | TGI (U251 CNS) | TGI (UACC-257 melanoma) | TGI (UACC-62 melanoma) | TGI (UO-31 renal)
